In ChEMBL document CHEMBL1158274, “Antibacterial neoclerodane diterpenoids from Ajuga lupulina” (1996):
Calls of active or inactive are those of the source. No cut-off for these calls is given here.

What was measured:
Format in all cases: functional
[1] = tested on: Escherichia coli; assay: Antibacterial activity against Escherichia coli by paper disk diffusion method
[2] = tested on: Staphylococcus aureus; assay: Antibacterial activity against Staphylococcus aureus by paper disk diffusion method
[3] = tested on: Pseudomonas aeruginosa; assay: Antibacterial activity against Pseudomonas aeruginosa NJ94 by paper disk diffusion method

SMILES	inhibition zone (IZ) [1] [mm]	inhibition zone (IZ) [2] [mm]	Activity [3]	Activity [1]	Activity [2]	inhibition zone (IZ) [3] [mm]
CC(=O)OC[C@@]12[C@@H](OC(C)=O)C[C@@H](C)[C@](C)([C@@H]3C[C@H]4C[C@H](O)O[C@H]4O3)[C@H]1CCC[C@]21CO1	1.2	1.2	inactive			
CO[C@H]1C[C@@H]2C[C@@H]([C@@]3(C)[C@H](C)C[C@H](OC(C)=O)[C@]4(COC(C)=O)[C@@H]3CCC[C@]43CO3)O[C@@H]2O1			inactive	inactive	inactive	
CC[C@@H](C)C(=O)O[C@H]1[C@H](O)C[C@@H]2[C@@](C)([C@@H]3C[C@H]4C[C@@H](OC)O[C@H]4O3)[C@H](C)C[C@H](OC(C)=O)[C@@]2(COC(C)=O)[C@@]12CO2 [LUPULIN A]	3	1.5				3
CC[C@@H](C)C(=O)O[C@H]1CC[C@@H]2[C@@](C)([C@@H]3C[C@H]4C[C@H](OC)O[C@H]4O3)[C@H](C)C[C@H](OC(C)=O)[C@@]2(COC(C)=O)[C@@]12CO2 [LUPULIN B]	1.2	1.2	inactive			
